Reference: PubChem BioAssay (NCI)
“And” between values parts separate entries of the source, which are not always exact repeats. Equal values may be shown once.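 96-well plates; 48 h exposure; 5 concentrations. Endpoints by linear interpolation between flanking doses. Not reached: highest tested concentration assigned. Here, GI50 denotes the concentration required for 50% inhibition of growth. At the TGI there is no net growth.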

What was measured:
Test in all cases: NCI tumour cell line growth inhibition, 48 h
MDA-N = tested on: MDA-N
RXF-631 renal = tested on: RXF-631 renal
XF 498 CNS = tested on: XF 498 CNS
DMS 114 small cell lung = tested on: DMS 114 small cell lung
P388 leukemia = tested on: P388 leukemia
P388/ADR leukemia = tested on: P388/ADR leukemia
DMS 273 small cell lung = tested on: DMS 273 small cell lung
DLD-1 colon = tested on: DLD-1 colon
HOP-18 NSCLC = tested on: HOP-18 NSCLC
SNB-78 CNS = tested on: SNB-78 CNS
M19-MEL melanoma = tested on: M19-MEL melanoma

Nc1nc(=S)c2[nH]cnc2[nH]1
GI50 (MDA-N): 0.541 µM and 1.24 µM
TGI (RXF-631 renal): 113 µM
TGI (XF 498 CNS): 8.35 µM
TGI (DMS 114 small cell lung): 36.3 µM
TGI (P388 leukemia): 6.43 µM
TGI (P388/ADR leukemia): 12.9 µM
TGI (DMS 273 small cell lung): 39.1 µM
TGI (DLD-1 colon): 202 µM
TGI (HOP-18 NSCLC): 139 µM
TGI (SNB-78 CNS): 172 µM
TGI (M19-MEL melanoma): 205 µM

CN(C)c1ccc(O[Si](Oc2ccc(N(C)C)cc2)(Oc2ccc(N(C)C)cc2)Oc2ccc(N(C)C)cc2)cc1
TGI (XF 498 CNS): > 100 µM
TGI (DMS 114 small cell lung): > 100 µM
TGI (DLD-1 colon): > 100 µM
TGI (HOP-18 NSCLC): > 100 µM
TGI (M19-MEL melanoma): > 100 µM

CCOc1ccccc1NC(=O)C1=C(C)NC(C)=C(C(=O)Nc2ccccc2OCC)C1c1ccc([N+](=O)[O-])cc1
TGI (RXF-631 renal): > 100 µM
TGI (DMS 114 small cell lung): > 100 µM
TGI (DMS 273 small cell lung): > 100 µM
TGI (DLD-1 colon): > 100 µM
TGI (HOP-18 NSCLC): > 100 µM
TGI (SNB-78 CNS): > 100 µM
TGI (M19-MEL melanoma): > 100 µM

COc1cc(N(CCC#N)CCC#N)ccc1/C(N=Nc1ccc(C(=O)O)cc1)=N/NC(=O)c1cc(Br)ccc1O
GI50 (MDA-N): 108 µg/mL
TGI (MDA-N): > 150 µg/mL

CC(=O)[O-].[Mn+3].[O-]c1ccc(Cl)cc1C=NCCN=Cc1cc(Cl)ccc1[O-]
GI50 (DMS 114 small cell lung): > 100 µM
TGI (DMS 114 small cell lung): > 100 µM
GI50 (DMS 273 small cell lung): > 100 µM
TGI (DMS 273 small cell lung): > 100 µM
GI50 (DLD-1 colon): 36.9 µM
TGI (DLD-1 colon): > 100 µM
GI50 (HOP-18 NSCLC): 51.9 µM
TGI (HOP-18 NSCLC): > 100 µM
GI50 (SNB-78 CNS): > 100 µM
TGI (SNB-78 CNS): > 100 µM
GI50 (M19-MEL melanoma): > 100 µM
TGI (M19-MEL melanoma): > 100 µM

COC(=O)C1CCC(=O)N1/C(C)=N/NC(=O)Nc1ccc(Cl)c(Cl)c1 (stereo not drawn)
TGI (XF 498 CNS): > 100 µM
TGI (DMS 114 small cell lung): > 100 µM
TGI (DMS 273 small cell lung): > 100 µM
TGI (DLD-1 colon): > 100 µM
TGI (SNB-78 CNS): > 100 µM
TGI (M19-MEL melanoma): > 100 µM

NNC(=O)N/N=C1\CN(c2ccc(Cl)cc2Cl)C(=O)C(=O)C1c1nc2ccccc2o1 (stereo not drawn)
TGI (RXF-631 renal): > 100 µM
TGI (XF 498 CNS): > 100 µM
TGI (DMS 114 small cell lung): > 100 µM
TGI (DMS 273 small cell lung): > 100 µM
TGI (DLD-1 colon): > 100 µM
TGI (SNB-78 CNS): > 100 µM
TGI (M19-MEL melanoma): > 100 µM

COc1ccc2c(c1)[n+](=O)c(C(C)=O)c(C)n2[O-]
TGI (XF 498 CNS): > 100 µM
TGI (DMS 114 small cell lung): > 100 µM
TGI (DLD-1 colon): > 100 µM
TGI (HOP-18 NSCLC): > 100 µM
TGI (SNB-78 CNS): > 100 µM
TGI (M19-MEL melanoma): > 100 µM

O=C(O)Cn1ccc(=O)c2cc([N+](=O)[O-])ccc21
TGI (MDA-N): > 100 µM

COc1ccc(C(=O)O/N=C2/CCCCC2CN(C)C)cc1 (stereo not drawn)
TGI (RXF-631 renal): > 100 µM
TGI (DMS 273 small cell lung): > 100 µM
TGI (DLD-1 colon): > 100 µM
TGI (HOP-18 NSCLC): > 100 µM
TGI (SNB-78 CNS): > 100 µM
TGI (M19-MEL melanoma): > 100 µM

COC(=O)c1sc(=NC(=S)N2CCCCC2)sc1C(=O)OC
TGI (RXF-631 renal): > 100 µM
TGI (DMS 114 small cell lung): > 100 µM
TGI (DMS 273 small cell lung): > 100 µM
TGI (DLD-1 colon): > 100 µM
TGI (HOP-18 NSCLC): > 100 µM
TGI (SNB-78 CNS): > 100 µM
TGI (M19-MEL melanoma): > 100 µM

c1ccc2c3c([nH]c2c1)C1C2CCCCN2C(c2ccncc2)N1CC3 (stereo not drawn)
TGI (XF 498 CNS): 98 µM
TGI (DMS 114 small cell lung): 83.5 µM
TGI (DMS 273 small cell lung): > 100 µM
TGI (SNB-78 CNS): > 100 µM
TGI (M19-MEL melanoma): > 100 µM

COc1ccc(-c2cc(-c3ccco3)c(C#N)c(=O)[nH]2)cc1
TGI (RXF-631 renal): > 100 µM
TGI (DMS 114 small cell lung): > 100 µM
TGI (DMS 273 small cell lung): > 100 µM
TGI (DLD-1 colon): > 100 µM
TGI (HOP-18 NSCLC): 74.8 µM
TGI (SNB-78 CNS): > 100 µM
TGI (M19-MEL melanoma): > 100 µM

CN(C)c1ccc(C2CC(C)(O)Oc3cc4c(cc32)OCO4)cc1 (stereo not drawn)
TGI (MDA-N): > 100 µM

OCC(O)C(O)C(O)C(O)c1nn[nH]n1 (stereo not drawn)
TGI (XF 498 CNS): > 100 µM
TGI (DMS 114 small cell lung): > 100 µM
TGI (DMS 273 small cell lung): > 100 µM
TGI (DLD-1 colon): > 100 µM
TGI (SNB-78 CNS): > 100 µM
TGI (M19-MEL melanoma): > 100 µM

CCCCC[C@@H](C/C=C/CCC(=O)NC/C(=C/Cl)[C@H]1C(=O)C(C)(C)C(=O)[C@@H](C)[C@@]1(C)O)OC
GI50 (MDA-N): 18.4 µM
TGI (MDA-N): 36.1 µM

Nc1ncnc2c1nc(Cl)n2C1OC(CO)C(O)C1O (stereo not drawn)
TGI (MDA-N): > 100 µM

Cc1nc(-n2nc(-c3ccccc3)cc2-c2ccccc2)sc1C(=O)/C=C/c1ccccc1
TGI (RXF-631 renal): > 100 µM
TGI (DMS 273 small cell lung): > 100 µM
TGI (DLD-1 colon): > 100 µM
TGI (HOP-18 NSCLC): > 100 µM
TGI (SNB-78 CNS): > 100 µM
TGI (M19-MEL melanoma): > 100 µM

C/C(CC(=O)Nc1cccc([N+](=O)[O-])c1)=N\NC(=O)C[n+]1ccccc1
TGI (XF 498 CNS): > 100 µM
TGI (DMS 114 small cell lung): > 100 µM
TGI (DLD-1 colon): > 100 µM
TGI (SNB-78 CNS): > 100 µM
TGI (M19-MEL melanoma): > 100 µM
